For 36 compounds, melting point results are on record in a melting point compilation (Tetko et al.; mined from patent text by program, amines drawn as free bases though some values may be those of a salt).

Molecules are shown by their SMILES.

The compound `CC(C)c1c(S(=O)(=O)c2ccc(O)cc2)c2ccccn2c1C#N` displayed a melting point of 232 °C.
The compound `O=c1ccc(C(F)(F)F)cn1-c1ccc(NCCCl)cc1Cl` returned a melting point of 160 to 162 °C.
Turning to `COc1ccc2cc([C@H](C)C(=O)Oc3ccc(OCCO[N+](=O)[O-])cc3)ccc2c1`, the melting point fell in the range of 141 to 142 °C.
Regarding `CCCCN(C1CCCOc2ccccc21)S(C)(=O)=O` (stereo unspecified), the melting point was 78 to 79 °C.
Consider `N#CC(=Cc1ccc(O)c(O)c1)C(=O)Nc1ccc(Cl)cc1`, for which the melting point turned out to be 290 °C.
With `O=[N+]([O-])C=Cc1cccc2[nH]ccc12`, the melting point lay in the range of 152 to 154 °C.
For `Nc1[nH]c(=O)c(C(=O)NCC2CCN(CC3CCCCC3)CC2)cc1Cl` the value was 142 to 146 °C; for `CCOCc1nc2c(N)nc3cccnc3c2n1CCCCCC(N)=O`, 215 to 217 °C.
For `CCCN(CCC)C(=O)CNc1nc(-c2ccccc2)nc2c1CCCC2` the value was 87 to 88 °C.
Consider `CCOC(=O)C(CC=C1CCN(c2ccccc2)C1=O)Nc1cc(Cl)ccc1I` (stereo unspecified), for which the melting point lay in the range of 132 to 134 °C.
The compound `C=CCc1c(Br)cc(C(C)(C)c2cc(Br)c(CC=C)c(Br)c2)cc1Br` registered a melting point of 114 °C.
For `CC(NC(=O)Cc1cc(F)cc(F)c1)C(=O)NC1C(=O)N(C)C(c2ccccc2)c2ccccc21` (stereo unspecified) the value was 115 °C; for `COC(=O)c1ccc(CC#N)cc1S(=O)(=O)NC(C)(C)C`, 86 to 88 °C; for `C=CC(=O)NCC(=O)Nc1cc(Cl)c(C)c(Cl)c1O`, 225 to 227 °C.
In turn, `c1ccc(N2CCN(CCCCc3cccnc3)CC2)nc1` had a melting point of 54 to 64 °C.
Take `Cc1nn(C)c2nc(-c3ccccc3)cc(N(C)C)c12`: the melting point fell in the range of 90 to 91 °C.
As to `CCCCN1C(=O)NC(CCC(=O)O)C1=O` (stereo unspecified), the melting point was 130 °C.
For `Cc1ccc(S(=O)(=O)NC(CSCC(=O)O)C(=O)O)cc1` (stereo unspecified), the melting point came to 152 °C.
The compound `CCOC(=O)c1cc2c(nc(C)n2C)c2c1C(=O)CC1(Cc3ccccc3C1)N2` displayed a melting point of 205 to 206 °C.
Compound `O=C1Nc2ccc(Cl)cc2C(OCc2ccccn2)(C(F)(F)F)CN1C1CC1` (stereo unspecified) gave a melting point of 170 to 172 °C.
With `Cc1cc(SCc2ccc(OCc3ccccc3)cc2)ccc1OCC(=O)O`, the melting point was in the range of 120 to 121 °C.
For `COc1cc(C(=O)NS(=O)(=O)c2ccccc2Cl)ccc1Cc1c(Cl)n(C)c2ccc(CCNC(=O)N(C)C)cc12`, the melting point is 204 to 206 °C.
Compound `CC(C)NCC(O)COc1cccc2c1CCC(O)C2` (stereo unspecified) gave a melting point of 136 to 141 °C.
The compound `CCOC(=O)CC(=O)Nc1sc(CC)cc1C(=O)c1ccccc1Cl` displayed a melting point of 56 to 57 °C.
`CCCc1c2c(c(NCC)c3c(=O)cc(C(=O)OCC)oc13)CCCC2` registered a melting point of 91.5 °C.
`CN1CCN(c2cccc3ccc(NC(=O)c4ccccc4)cc23)CC1` returned a melting point of 173 to 175 °C.
Compound `CN1CC=C(c2c[nH]c3ccc(C[C@H]4COC(=O)N4)cc23)CC1` came in with a melting point of 225 to 227 °C.
With `CCCCOc1c(CNC(=O)OC(C)(C)C)n(CC2CC2)c(=O)c2ccc(C=O)cc12`, the melting point lay within 151 to 152 °C.
The compound `COc1ccc(S(=O)(=O)N2c3ccccc3-c3ccccc3C2C)cc1OC` (stereo unspecified) yielded a melting point of 131 to 133 °C.
`O=C(O)c1ccc(-c2nc(-c3ccccc3C(F)(F)F)co2)cc1` showed a melting point of 264 to 265 °C.
The compound `COC1(F)C=CC=C(c2cc(CBr)c(=O)n(Cc3ccc(F)cc3)n2)C1` (stereo unspecified) gave a melting point of 120 to 125 °C.
For the compound `Cn1cc(CO)c(=O)c2cc(F)ccc21`, the melting point was 209 to 212 °C.
Regarding `CC(=O)Nc1cc(C(F)(F)F)cc(C(F)(F)F)c1[N+](=O)[O-]`, the melting point fell in the range of 190 to 192 °C.
`COc1c(Cl)cc(Cl)c(OC)c1C(=O)O` returned a melting point of 98 to 100 °C.
For the compound `COC(=O)C(OC)C(=O)Nc1cc(Cl)cc(Cl)c1` (stereo unspecified), the melting point is 116 to 118 °C.
The compound `C#CCSc1cc(-c2nn(C)c(SC)c2Cl)c(F)cc1Cl` yielded a melting point of 93 to 96 °C.
